Source: ChEMBL document CHEMBL1201862, “PubChem BioAssay data set” (2004)
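Grown in 96-well plates, cells were treated for 48 hours with each compound at five concentrations. Insufficient inhibition: endpoint recorded as highest concentration tested. GI50 is the concentration that inhibits growth by half.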 Activity calls are given as the source filed them. Rule as the data show it: active = GI50 up to about 1.1 µM and inactive = higher.

What was measured:
Test in all cases: NCI anticancer screen, dose series, 48 h
[1] = system: HOP-92
[2] = system: OVCAR-3
[3] = system: OVCAR-5
[4] = system: MCF7
[5] = system: HT-29
[6] = system: PC-3
[7] = system: Malme-3M
[8] = system: T47D
[9] = system: 786-0
[10] = system: HCT-15
[11] = system: SNB-19
[12] = system: U-251
[13] = system: NCI-H460
[14] = system: SW-620
[15] = system: COLO 205
[16] = system: MOLT-4
[17] = system: A498
[18] = system: SK-MEL-28
[19] = system: RPMI-8226
[20] = system: MDA-N
[21] = system: RXF 393
[22] = system: MDA-MB-435
[23] = system: K562
[24] = system: NCI-H23
[25] = system: SF-268
[26] = system: SK-MEL-5
[27] = system: SK-OV-3
[28] = system: MDA-MB-231
[29] = system: TK-10
[30] = system: OVCAR-8
[31] = system: HCC 2998
[32] = system: A549
[33] = system: CAKI-1
[34] = system: OVCAR-4
[35] = system: SK-MEL-2
[36] = system: DU-145
[37] = system: SN12C
[38] = system: SF-539
[39] = system: ACHN
[40] = system: KM12
[41] = system: NCI-H522
[42] = system: HOP-62
[43] = system: M14
[44] = system: UACC-62
[45] = system: SF-295
[46] = system: HCT-116
[47] = system: NCI/ADR-RES
[48] = system: UO-31
[49] = system: UACC-257
[50] = system: SR
[51] = system: HL-60
[52] = system: CCRF-CEM
[53] = system: EKVX
[54] = system: IGROV-1
[55] = system: LOX IMVI

In the case of CCCCCCCCCCCCOCC(COP(=O)(O)OCCN=[N+]=[N-])OC(=O)CCCCCCCCCCC (stereo not drawn), the GI50 [1] was > 100 µM (inactive), the GI50 [2] was > 100 µM (inactive) and the GI50 [3] was > 100 µM (inactive). For the same molecule, the GI50 [4] was > 100 µM (inactive), the GI50 [5] was > 100 µM (inactive) and the GI50 [6] was > 100 µM (inactive). For the same molecule, the GI50 [7] was > 100 µM (inactive), the GI50 [8] was > 100 µM (inactive) and the GI50 [9] was > 100 µM (inactive). For the same molecule, the GI50 [10] was greater than 100 µM, the GI50 [11] was > 100 µM (inactive) and the GI50 [12] was > 100 µM (inactive). For the same molecule, the GI50 [13] was > 100 µM (inactive), the GI50 [14] was > 100 µM (inactive) and the GI50 [15] was > 100 µM (inactive). The GI50 [16] was > 100 µM (inactive), the GI50 [17] was > 100 µM (inactive) and the GI50 [18] was > 100 µM (inactive). The GI50 [19] was > 100 µM (inactive), the GI50 [20] was > 100 µM (inactive) and the GI50 [21] was > 100 µM (inactive). The GI50 [22] was > 100 µM (inactive), the GI50 [23] was > 100 µM (inactive) and the GI50 [24] was > 100 µM (inactive). For the same molecule, the GI50 [25] was > 100 µM (inactive), the GI50 [26] was > 100 µM (inactive) and the GI50 [27] was > 100 µM (inactive). For the same molecule, the GI50 [28] was > 100 µM (inactive), the GI50 [29] was > 100 µM (inactive) and the GI50 [30] was > 100 µM (inactive). For the same molecule, the GI50 [31] was > 100 µM (inactive), the GI50 [32] was > 100 µM (inactive) and the GI50 [33] was > 100 µM (inactive). For the same molecule, the GI50 [34] was 52.2 µM (inactive), the GI50 [35] was > 100 µM (inactive) and the GI50 [36] was > 100 µM (inactive). For the same molecule, the GI50 [37] was > 100 µM (inactive), the GI50 [38] was > 100 µM (inactive) and the GI50 [39] was > 100 µM (inactive). The GI50 [40] was > 100 µM (inactive), the GI50 [41] was > 100 µM (inactive) and the GI50 [42] was > 100 µM (inactive). For the same molecule, the GI50 [43] was > 100 µM (inactive), the GI50 [44] was > 100 µM (inactive) and the GI50 [45] was > 100 µM (inactive). For the same molecule, the GI50 [46] was > 100 µM (inactive), the GI50 [47] was > 100 µM (inactive) and the GI50 [48] was > 100 µM (inactive).

O=C(O)[C@@H]1CCS(=O)(=O)N1 was tested, and the GI50 [2] was > 100 µM (inactive), the GI50 [3] was > 100 µM (inactive) and the GI50 [4] was > 100 µM (inactive). For the same molecule, the GI50 [49] was > 100 µM (inactive), the GI50 [5] was > 100 µM (inactive) and the GI50 [50] was > 100 µM (inactive). For the same molecule, the GI50 [6] was > 100 µM (inactive), the GI50 [7] was > 100 µM (inactive) and the GI50 [8] was > 100 µM (inactive). For the same molecule, the GI50 [51] was > 100 µM (inactive), the GI50 [9] was > 100 µM (inactive) and the GI50 [10] was greater than 100 µM. For the same molecule, the GI50 [11] was > 100 µM (inactive), the GI50 [13] was > 100 µM (inactive) and the GI50 [14] was > 100 µM (inactive). For the same molecule, the GI50 [15] was > 100 µM (inactive), the GI50 [16] was > 100 µM (inactive) and the GI50 [17] was > 100 µM (inactive). For the same molecule, the GI50 [52] was > 100 µM (inactive), the GI50 [18] was > 100 µM (inactive) and the GI50 [20] was > 100 µM (inactive). For the same molecule, the GI50 [21] was > 100 µM (inactive), the GI50 [22] was > 100 µM (inactive) and the GI50 [24] was > 100 µM (inactive). For the same molecule, the GI50 [25] was > 100 µM (inactive), the GI50 [53] was > 100 µM (inactive) and the GI50 [26] was > 100 µM (inactive). For the same molecule, the GI50 [27] was > 100 µM (inactive), the GI50 [28] was > 100 µM (inactive) and the GI50 [29] was > 100 µM (inactive). For the same molecule, the GI50 [30] was > 100 µM (inactive), the GI50 [31] was > 100 µM (inactive) and the GI50 [32] was > 100 µM (inactive). For the same molecule, the GI50 [33] was > 100 µM (inactive), the GI50 [34] was > 100 µM (inactive) and the GI50 [35] was > 100 µM (inactive). The GI50 [36] was > 100 µM (inactive), the GI50 [37] was > 100 µM (inactive) and the GI50 [38] was > 100 µM (inactive). The GI50 [39] was > 100 µM (inactive), the GI50 [54] was > 100 µM (inactive) and the GI50 [55] was > 100 µM (inactive). For the same molecule, the GI50 [40] was > 100 µM (inactive), the GI50 [41] was > 100 µM (inactive) and the GI50 [42] was > 100 µM (inactive). For the same molecule, the GI50 [43] was > 100 µM (inactive), the GI50 [44] was > 100 µM (inactive) and the GI50 [45] was > 100 µM (inactive). The GI50 [46] was > 100 µM (inactive) and the GI50 [47] was > 100 µM (inactive).
